# Reference: patent publication US7045532B2 (Millennium Pharmaceuticals, Inc., priority 1999, dated 2006)
# pKi: −log10 of the molar value. Like-named read-outs stand apart in the source and are kept apart here.
# Key:
# [1] = target: T1, ACE-2 (Homo sapiens, UniProt Q9BYF1); test: ACE-2 Competitive Substrate Assay (ACS Assay); assay type: biochemical
# T1 construct: a stop codon inserted after the serine immediately preceding the transmembrane domain; made in house; host or cells: CHO K1 cells (transient transfection, purified from conditioned medium)
# T1 sequence (Q9BYF1 18-740 limits assumed): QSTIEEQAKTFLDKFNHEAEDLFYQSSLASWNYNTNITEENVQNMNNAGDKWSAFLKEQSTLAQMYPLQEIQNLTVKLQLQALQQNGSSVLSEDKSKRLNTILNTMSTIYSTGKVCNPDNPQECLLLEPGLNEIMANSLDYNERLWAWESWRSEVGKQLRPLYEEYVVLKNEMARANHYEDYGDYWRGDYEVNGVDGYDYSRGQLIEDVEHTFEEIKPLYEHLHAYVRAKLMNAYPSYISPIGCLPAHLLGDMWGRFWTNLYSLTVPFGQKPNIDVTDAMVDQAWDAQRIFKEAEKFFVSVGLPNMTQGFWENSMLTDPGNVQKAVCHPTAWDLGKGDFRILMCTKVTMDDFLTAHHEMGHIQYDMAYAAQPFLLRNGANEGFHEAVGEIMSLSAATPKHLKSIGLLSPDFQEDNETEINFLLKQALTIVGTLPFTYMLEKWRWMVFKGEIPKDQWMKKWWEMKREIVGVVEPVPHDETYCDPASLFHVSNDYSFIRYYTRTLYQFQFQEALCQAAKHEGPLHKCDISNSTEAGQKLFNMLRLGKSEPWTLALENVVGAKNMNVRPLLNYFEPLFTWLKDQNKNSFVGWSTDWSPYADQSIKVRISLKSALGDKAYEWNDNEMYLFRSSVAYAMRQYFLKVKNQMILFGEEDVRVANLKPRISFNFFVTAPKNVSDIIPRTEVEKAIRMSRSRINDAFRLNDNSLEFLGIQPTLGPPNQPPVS
# [2] = target: T2, ACE (Sigma, A2580) (Sus scrofa, UniProt F1RRW5); test: ACE enzymatic activity assay; assay type: biochemical, porcine; conditions: Ki class, compounds tested in 5% DMSO
# T2 construct: ACE from porcine kidney; purchased Sigma A2580; host or cells: porcine kidney
# T2 sequence (F1RRW5 34-1309): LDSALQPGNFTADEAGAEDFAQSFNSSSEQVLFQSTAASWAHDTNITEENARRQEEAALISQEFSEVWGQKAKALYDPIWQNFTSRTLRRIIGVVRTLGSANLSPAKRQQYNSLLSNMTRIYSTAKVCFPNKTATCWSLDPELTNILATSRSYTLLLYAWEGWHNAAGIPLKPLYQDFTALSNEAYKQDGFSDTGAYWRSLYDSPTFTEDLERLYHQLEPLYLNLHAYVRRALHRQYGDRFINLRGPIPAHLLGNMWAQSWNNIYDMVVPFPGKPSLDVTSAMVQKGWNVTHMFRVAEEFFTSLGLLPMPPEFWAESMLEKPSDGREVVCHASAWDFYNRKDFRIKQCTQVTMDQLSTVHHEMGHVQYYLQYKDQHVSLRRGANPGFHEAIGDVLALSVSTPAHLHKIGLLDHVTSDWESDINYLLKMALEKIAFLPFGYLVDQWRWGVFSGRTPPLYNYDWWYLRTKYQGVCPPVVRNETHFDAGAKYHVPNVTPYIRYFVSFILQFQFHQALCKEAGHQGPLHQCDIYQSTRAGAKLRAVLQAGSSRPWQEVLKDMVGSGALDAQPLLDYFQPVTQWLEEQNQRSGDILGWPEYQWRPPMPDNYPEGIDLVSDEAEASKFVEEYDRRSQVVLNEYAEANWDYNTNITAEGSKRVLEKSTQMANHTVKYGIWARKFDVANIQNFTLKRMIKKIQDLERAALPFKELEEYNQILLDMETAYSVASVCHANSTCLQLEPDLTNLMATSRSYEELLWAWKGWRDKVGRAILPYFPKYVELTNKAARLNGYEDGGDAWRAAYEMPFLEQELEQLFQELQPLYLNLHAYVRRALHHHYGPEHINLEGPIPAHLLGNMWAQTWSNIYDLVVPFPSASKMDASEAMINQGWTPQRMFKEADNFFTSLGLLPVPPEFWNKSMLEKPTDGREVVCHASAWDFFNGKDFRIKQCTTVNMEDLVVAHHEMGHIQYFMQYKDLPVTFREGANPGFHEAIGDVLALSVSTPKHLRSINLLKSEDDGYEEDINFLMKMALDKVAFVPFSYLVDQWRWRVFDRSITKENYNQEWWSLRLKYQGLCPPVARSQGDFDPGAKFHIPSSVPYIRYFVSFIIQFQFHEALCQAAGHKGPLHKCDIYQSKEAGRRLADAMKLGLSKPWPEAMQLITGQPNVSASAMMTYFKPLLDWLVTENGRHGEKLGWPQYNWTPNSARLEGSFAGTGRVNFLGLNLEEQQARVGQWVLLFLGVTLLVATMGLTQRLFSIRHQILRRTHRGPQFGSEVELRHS
# How it was run: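 ACE (1 nM final) in 50 mM HEPES, 300 mM NaCl, 0.01% Brij-35, pH 7.5, with compound in 5% DMSO at 12 concentrations, 25 °C. Substrate cleavage run ~30 min, stopped with EDTA; fluorescence read at excitation 320 nm, emission 405 nm.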
# [3] = target: ACE-2 (Rattus norvegicus, UniProt Q5EGZ1); test: ACE-2 Competitive Substrate Assay, rat ACE-2; assay type: biochemical; conditions: Ki class, compounds tested in 5% DMSO
# Sequence of ACE-2 (Rattus norvegicus, UniProt Q5EGZ1) (Q5EGZ1 18-805): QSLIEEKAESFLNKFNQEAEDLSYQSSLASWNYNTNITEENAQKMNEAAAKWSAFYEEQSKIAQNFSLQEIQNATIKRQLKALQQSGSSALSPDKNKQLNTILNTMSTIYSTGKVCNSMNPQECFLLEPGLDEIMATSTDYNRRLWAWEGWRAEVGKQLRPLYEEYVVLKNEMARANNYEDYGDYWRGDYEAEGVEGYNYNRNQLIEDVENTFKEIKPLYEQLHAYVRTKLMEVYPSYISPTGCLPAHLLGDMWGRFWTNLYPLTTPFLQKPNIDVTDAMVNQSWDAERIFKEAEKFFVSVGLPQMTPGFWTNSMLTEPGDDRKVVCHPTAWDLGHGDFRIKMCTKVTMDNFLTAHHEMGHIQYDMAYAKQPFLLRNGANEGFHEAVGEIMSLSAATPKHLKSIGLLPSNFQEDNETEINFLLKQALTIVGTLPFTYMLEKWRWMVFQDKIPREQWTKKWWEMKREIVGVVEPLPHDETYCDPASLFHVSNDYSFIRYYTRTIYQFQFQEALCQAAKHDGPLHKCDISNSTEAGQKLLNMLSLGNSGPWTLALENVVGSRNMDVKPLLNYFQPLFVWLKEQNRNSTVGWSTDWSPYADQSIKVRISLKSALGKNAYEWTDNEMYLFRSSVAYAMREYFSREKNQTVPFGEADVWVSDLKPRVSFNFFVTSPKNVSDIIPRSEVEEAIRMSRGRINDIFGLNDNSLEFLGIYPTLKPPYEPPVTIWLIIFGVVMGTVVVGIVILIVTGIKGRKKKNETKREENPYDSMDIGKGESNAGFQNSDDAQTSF
# [4] = target: T3, Carboxypeptidase A (Bos taurus, UniProt P00730); test: Carboxypeptidase A activity assay; assay type: biochemical; conditions: Ki class, compounds tested in 5% DMSO
# T3 sequence (P00730 111-419): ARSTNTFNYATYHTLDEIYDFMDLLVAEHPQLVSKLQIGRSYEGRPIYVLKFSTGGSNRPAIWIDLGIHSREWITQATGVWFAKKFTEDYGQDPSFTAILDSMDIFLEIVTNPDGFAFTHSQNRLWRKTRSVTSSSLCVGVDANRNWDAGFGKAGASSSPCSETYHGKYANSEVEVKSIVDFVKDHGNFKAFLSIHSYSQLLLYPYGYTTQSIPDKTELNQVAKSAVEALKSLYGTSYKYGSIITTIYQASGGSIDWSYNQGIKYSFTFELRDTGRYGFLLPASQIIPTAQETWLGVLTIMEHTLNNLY
# How it was run: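 Bovine carboxypeptidase A activity followed at 328 nm in 5% DMSO, reaction stopped with EDTA. Activity measured at 12 compound concentrations. Ki derived from apparent Ki as Ki=Kiapp/(1+[S]/Km).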
# [5] = Ki class, compounds tested in 5% DMSO, 12 concentrations, read-out: Human ACE-2 Activity
# [6] = Ki class, compounds tested in 5% DMSO, 12 compound concentrations, Ki=Kiapp/(1+[S]/Km), read-out: Human ACE-2 Activity
# [7] = Table 3, very good ACE-2 inhibiting compounds, species not given, read-out: ACE-2 Activity, Ki
"pKi [1, 5]",pKi ([2]; 12 concentrations),pKi ([3]; 12 concentrations),pKi ([4]; 12 concentrations),"pKi [1, 6]","pKi [1, 7]",pKi ([2]; 12 compound concentrations),pKi ([3]; 12 compound concentrations),pKi ([4]; 12 compound concentrations),SMILES
< 6.30,< 4.30,< 6.30,< 4.30,,,,,,"CC(C)CC(N[C@H](CC(=O)O)Cc1ccco1)C(=O)O (stereo partly shown) [EH, 2-(1-Carboxymethyl-2-furan-2-yl-ethylamino)-4-methyl-pentanoic acid]"
< 6.30,< 4.30,< 6.30,< 4.30,,,,,,"CC(N[C@H](Cc1c[nH]cn1)C(=O)O)C(=O)O (stereo partly shown) [BD, 2-(1-carboxy-ethylamino)-3-(1H-imidazol-4-yl)-propionic acid]"
< 6.30,< 4.30,6.30 to 7.00,< 4.30,,,,,,"CC(C)CC(CS)C(=O)O (stereo not shown) [DQ, 2-Mercaptomethyl-4-methyl-pentanoic acid]"
< 6.30,< 4.30,< 6.30,< 4.30,,,,,,"CC(C)CC(N[C@H](CN(C)Cc1ccccc1)C(=O)O)C(=O)O (stereo in doubt) [FU, 2-[2-(Benzyl-methyl-amino)-1-carboxy-ethylamino]-4-methyl-pentanoic acid]"
< 6.30,< 4.30,< 6.30,< 4.30,,,,,,"CCCCCC[C@H](N[C@H](Cc1c[nH]cn1)C(=O)O)C(=O)O [CR, 2-[1-Carboxy-2-(1H-imidazol-4-yl)-ethylamino)octanoic acid]"
< 6.30,< 4.30,< 6.30,< 4.30,,,,,,"CC(C)CC(N[C@H](Cc1c[nH]cn1)C(=O)O)C(=O)O (single isomer, unassigned) [BI, 2-[1-Carboxy-2-(1H-imidazol-4-yl)-ethylamino]4-methyl-pentanoic acid]"
> 7.00,< 4.30,> 7.00,4.30 to 5.00,,,,,,"CC(C)CC(N[C@@H](Cc1cncn1Cc1ccc(Cl)cc1)C(=O)O)C(=O)O (single isomer, unassigned) [GM, 2-[1-Carboxy-2-[3-(4-chloro-benzyl)-3H-imidazol-4-yl]-ethylamino]4-methyl-pentanoic acid]"
< 6.30,< 4.30,< 6.30,< 4.30,,,,,,"CC(C)CC(N[C@H](Cc1cccnc1)C(=O)O)C(=O)O (stereo partly shown) [CC, 2-(1-Carboxy-2-pyridin-3-yl-ethylamino)-4-methyl-pentanoic acid]"
< 6.30,< 4.30,> 7.00,4.30 to 5.00,,,,,,"CC(C)CC(N[C@@H](CN(C)c1ccccc1)C(=O)O)C(=O)O (stereo partly shown) [FS, 2-[1-Carboxy-2-(methyl-phenyl-amino)-ethylamino]-4-methyl-pentanoic acid]"
< 6.30,< 4.30,6.30 to 7.00,4.30 to 5.00,,,,,,"CC(C)C[C@H](N[C@@H](Cc1ccccc1)C(=O)O)C(=O)O [BW, 2-(1-Carboxy-2-phenyl-ethylamino)-4-methyl-pentanoic acid]"
< 6.30,< 4.30,< 6.30,4.30 to 5.00,,,,,,"O=C(O)[C@H](CC#Cc1ccccn1)N[C@H](CCc1ccccc1)C(=O)O [EB, 2-(1-Carboxy-3-phenyl-propylamino)-5-pyridin-2-yl-pent-4-ynoic acid]"
< 6.30,< 4.30,< 6.30,< 4.30,,,,,,"CC(C)CC(N[C@H](Cc1cn(C)cn1)C(=O)O)C(=O)O (stereo partly shown) [CA, 2-[-Carboxy-2-(1-methyl-1H-imidazol-4-yl)-ethylamino]-4-methyl-pentanoic acid]"
< 6.30,< 4.30,< 6.30,< 4.30,,,,,,"COc1ccc(C(N[C@@H](CC(C)C)C(=O)O)C(=O)O)cc1 (stereo partly shown) [BQ, 2-[(Carboxy-(4-methoxy-phenyl)-methyl]-amino]-4-methyl-pentanoic acid]"
< 6.30,< 4.30,< 6.30,< 4.30,,,,,,"COC(=O)[C@H](CC(C)C)NCC(=O)c1ccc(-c2ccccc2)cc1 [DH, 2-(2-Biphenyl-4-yl-2-oxo-ethylamino)-4-methyl-pentanoic acid methylester]"
,,,,> 7.00,> 7.30,4.30 to 5.00,> 7.00,4.30 to 5.00,"CC(C)CC(N[C@@H](Cc1cncn1Cc1cccc(Cl)c1)C(=O)O)C(=O)O (single isomer, unassigned) [HC, 2-[1-Carboxy-2-[3-(3-chloro-benzyl)-3H-imidazol-4-yl]-ethylamino)4-methyl-pentanoic acid]"
< 6.30,< 4.30,< 6.30,4.30 to 5.00,,,,,,"CC(C)CC(N[C@H](Cc1cccs1)C(=O)O)C(=O)O (stereo in doubt) [CP, 2-(1-Carboxy-2-thiophen-2-yl-ethylamino)-4-methyl-pentanoic acid]"
< 6.30,< 4.30,6.30 to 7.00,4.30 to 5.00,,,,,,"O=C(O)[C@H](CC#Cc1ccccc1)N[C@@H](CCc1ccccc1)C(=O)O [DS, 2-(1-Carboxy-3-phenyl-propylamino)-5-phenyl-pent-4-ynoic acid]"
< 6.30,< 4.30,6.30 to 7.00,< 4.30,,,,,,"CC(C)(C)C[C@H](N[C@@H](CCc1ccccc1)C(=O)O)C(=O)O [CK, 2-(1-Carboxy-3-phenyl-propylamino)-4,4-dimethylpentanoic acid]"
< 6.30,< 4.30,< 6.30,< 4.30,,,,,,"O=C(O)C[C@H](NC(CCc1ccccc1)C(=O)O)C(=O)O (stereo partly shown) [AZ, 2-(1-Carboxy-3-phenyl-propylamino)-succinicacid]"
< 6.30,< 4.30,< 6.30,< 4.30,,,,,,"O=C(O)[C@H](CC1CC1)N[C@H](CCc1ccccc1)C(=O)O [DE, 2-(1-Carboxy-2-cyclopropyl-ethylamino)-4-phenyl-butync acid]"
< 6.30,< 4.30,6.30 to 7.00,< 4.30,,,,,,"CCCC(NC(Cc1c[nH]cn1)C(=O)O)C(=O)O (single isomer, unassigned) [DJ, 2-[1-Carboxy-2-(1H-imidazol-4-yl)-ethylamino)pentanoic acid]"
,,,,> 7.00,> 7.30,4.30 to 5.00,> 7.00,4.30 to 5.00,"Cc1ccc(Cn2cncc2C[C@H](NC(CC(C)C)C(=O)O)C(=O)O)cc1C (single isomer, unassigned) [HK, 2-[1-Carboxy-2-[3-(3,4-dimethyl-benzyl)-3H-imidazol-4-yl]-ethylamino)4-methyl-pentanoic acid]"
< 6.30,< 4.30,< 6.30,< 4.30,,,,,,"COC(=O)[C@H](Cc1c[nH]cn1)NC(CC(C)C)C(=O)O (single isomer, unassigned) [CT, 2-[2-(1H-Imidazol-4-yl)-1-methoxycarbonyl-ethylamino]-4-methyl-pentanoic acid]"
